Data published in publication PMC4761420 (2015).

Tested on: 5′-TAMRA-AM1A (RNA, riboswitch) GAGGGUGGAACCGCGCUUCGGCGUCCCUC
Assay: fluorescence titration
Conditions: 50 mM NaCl; 50 mM MOPS pH 6.5, 0.01 mM EDTA; 100 nM RNA; apparent

Kd: 54 ± 12 µM
Compound: NCCCCNCCCN
